Measurements published in patent publication US9775844B2, “Heterocyclic compounds and uses thereof” (Infinity Pharmaceuticals, Inc., priority 2014, dated 2017).

Assays:
[1] = molecular target: PI3K δ (Homo sapiens (Human), UniProt O00329); assay: PI3-Kinase Promega ADP-Glo Max assay; assay type: biochemical
Protocol: (§1) Promega ADP-Glo Max assay kit (Cat. No. V7002) was utilized to determine IC50 values for α, β, δ and γ isoforms of human Class I PI3 kinases (Millipore). […] Reactions were incubated at room temperature for 2 hours followed by addition of 25 uL of stop solution. After a 40-minute incubation at room temperature, 50 uL of Promega detection mix was added followed by incubation for 1 hour at room temperature. Plates were then read on Envision plate reader in lunimescence mode. Data was converted to % inhibition using the following equation below:
(§2) [formula] where S is the sample luminescence, Pos is a positive control without added PI3K, Neg is the negative control without added compound. Data was then plotted as % inhibition vs compound concentration.

[2] = molecular target: PI3K-γ in RAW264.7 macrophages (Mus musculus (Mouse), UniProt Q9JHG7); assay: Raw264.7 p110 γ assay (PI3K-γ selective cellular assay, C5a-stimulated phospho-AKT); assay type: cell-based; details: for IC50: phospho-AKT, read-out: Raw264.7 p110 γ assay IC50
Description: Briefly, serum-starved RAW264.7 cells are stimulated with a known GPCR agonist C5a. […] Cells can be treated with test compounds prior to, simultaneously with, or subsequent to the stimulation by C5a. RAW 264.7 cells respond to the complement component fragment C5a through activation of the C5a receptor, and the C5a receptor activates macrophages and induces cell migration.

[3] = molecular target: PI3K α (Homo sapiens (Human), UniProt P42336); assay: PI3-Kinase Promega ADP-Glo Max assay; assay type: biochemical
Chain of PI3K α (P42336 whole entry): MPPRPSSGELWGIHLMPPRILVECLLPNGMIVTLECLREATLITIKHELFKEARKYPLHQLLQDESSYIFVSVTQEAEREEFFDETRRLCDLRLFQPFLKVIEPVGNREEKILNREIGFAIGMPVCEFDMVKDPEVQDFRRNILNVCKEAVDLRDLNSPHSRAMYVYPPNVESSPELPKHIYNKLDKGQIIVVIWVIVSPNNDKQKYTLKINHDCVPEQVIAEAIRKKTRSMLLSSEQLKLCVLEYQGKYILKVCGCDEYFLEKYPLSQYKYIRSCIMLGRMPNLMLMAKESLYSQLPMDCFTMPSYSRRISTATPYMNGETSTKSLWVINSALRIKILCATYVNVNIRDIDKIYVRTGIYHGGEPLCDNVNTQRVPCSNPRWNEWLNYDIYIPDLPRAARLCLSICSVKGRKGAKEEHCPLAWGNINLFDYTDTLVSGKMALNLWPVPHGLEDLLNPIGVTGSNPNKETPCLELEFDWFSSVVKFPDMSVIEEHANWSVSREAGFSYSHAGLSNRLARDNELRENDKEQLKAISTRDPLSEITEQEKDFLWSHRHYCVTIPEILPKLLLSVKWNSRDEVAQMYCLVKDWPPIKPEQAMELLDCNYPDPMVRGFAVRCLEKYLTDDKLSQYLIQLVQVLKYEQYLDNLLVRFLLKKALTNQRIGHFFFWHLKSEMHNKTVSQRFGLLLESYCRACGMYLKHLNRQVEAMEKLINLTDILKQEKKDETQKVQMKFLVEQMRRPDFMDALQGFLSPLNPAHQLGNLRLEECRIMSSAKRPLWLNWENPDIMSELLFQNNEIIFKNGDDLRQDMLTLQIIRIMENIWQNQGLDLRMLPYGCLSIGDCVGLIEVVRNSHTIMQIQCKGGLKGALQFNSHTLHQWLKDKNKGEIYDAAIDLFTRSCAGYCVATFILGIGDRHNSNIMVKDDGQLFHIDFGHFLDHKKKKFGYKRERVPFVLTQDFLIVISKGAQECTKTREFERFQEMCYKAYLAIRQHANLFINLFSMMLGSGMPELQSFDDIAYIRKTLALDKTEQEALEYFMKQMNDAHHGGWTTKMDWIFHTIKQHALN
Chain of PI3K α (P27986 whole entry partner): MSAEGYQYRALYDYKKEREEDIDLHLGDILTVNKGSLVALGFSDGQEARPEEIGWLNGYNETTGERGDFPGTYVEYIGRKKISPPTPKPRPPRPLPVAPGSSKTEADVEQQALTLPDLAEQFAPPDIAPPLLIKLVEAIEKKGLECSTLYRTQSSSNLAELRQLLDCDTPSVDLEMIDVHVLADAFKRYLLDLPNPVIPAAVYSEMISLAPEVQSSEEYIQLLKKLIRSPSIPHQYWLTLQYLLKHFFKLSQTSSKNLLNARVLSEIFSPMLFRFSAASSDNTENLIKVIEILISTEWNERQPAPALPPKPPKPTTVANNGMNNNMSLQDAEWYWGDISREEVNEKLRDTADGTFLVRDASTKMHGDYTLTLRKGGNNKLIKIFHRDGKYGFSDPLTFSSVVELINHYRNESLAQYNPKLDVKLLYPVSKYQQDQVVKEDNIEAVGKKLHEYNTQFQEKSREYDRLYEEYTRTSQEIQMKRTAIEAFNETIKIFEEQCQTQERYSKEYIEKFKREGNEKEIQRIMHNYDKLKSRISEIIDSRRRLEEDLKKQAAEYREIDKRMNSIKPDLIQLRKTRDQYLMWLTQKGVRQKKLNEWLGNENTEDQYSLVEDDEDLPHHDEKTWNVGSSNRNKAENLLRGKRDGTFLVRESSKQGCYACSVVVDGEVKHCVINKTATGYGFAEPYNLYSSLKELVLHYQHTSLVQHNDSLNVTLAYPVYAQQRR
Protocol: as §1, §2

[4] = molecular target: PI3K γ (Homo sapiens (Human), UniProt P48736); assay: PI3-Kinase Promega ADP-Glo Max assay; assay type: biochemical
Protocol: as §1, §2

[5] = molecular target: PI3K-δ in RAJI cells (Homo sapiens (Human), UniProt O00329); assay: RAJI p110 δ assay (PI3K-δ selective cellular assay, phospho-AKT); assay type: cell-based; details: phospho-AKT; read-out: RAJI p110 δ assay IC50
Chain of PI3K-δ in RAJI cells (O00329 whole entry): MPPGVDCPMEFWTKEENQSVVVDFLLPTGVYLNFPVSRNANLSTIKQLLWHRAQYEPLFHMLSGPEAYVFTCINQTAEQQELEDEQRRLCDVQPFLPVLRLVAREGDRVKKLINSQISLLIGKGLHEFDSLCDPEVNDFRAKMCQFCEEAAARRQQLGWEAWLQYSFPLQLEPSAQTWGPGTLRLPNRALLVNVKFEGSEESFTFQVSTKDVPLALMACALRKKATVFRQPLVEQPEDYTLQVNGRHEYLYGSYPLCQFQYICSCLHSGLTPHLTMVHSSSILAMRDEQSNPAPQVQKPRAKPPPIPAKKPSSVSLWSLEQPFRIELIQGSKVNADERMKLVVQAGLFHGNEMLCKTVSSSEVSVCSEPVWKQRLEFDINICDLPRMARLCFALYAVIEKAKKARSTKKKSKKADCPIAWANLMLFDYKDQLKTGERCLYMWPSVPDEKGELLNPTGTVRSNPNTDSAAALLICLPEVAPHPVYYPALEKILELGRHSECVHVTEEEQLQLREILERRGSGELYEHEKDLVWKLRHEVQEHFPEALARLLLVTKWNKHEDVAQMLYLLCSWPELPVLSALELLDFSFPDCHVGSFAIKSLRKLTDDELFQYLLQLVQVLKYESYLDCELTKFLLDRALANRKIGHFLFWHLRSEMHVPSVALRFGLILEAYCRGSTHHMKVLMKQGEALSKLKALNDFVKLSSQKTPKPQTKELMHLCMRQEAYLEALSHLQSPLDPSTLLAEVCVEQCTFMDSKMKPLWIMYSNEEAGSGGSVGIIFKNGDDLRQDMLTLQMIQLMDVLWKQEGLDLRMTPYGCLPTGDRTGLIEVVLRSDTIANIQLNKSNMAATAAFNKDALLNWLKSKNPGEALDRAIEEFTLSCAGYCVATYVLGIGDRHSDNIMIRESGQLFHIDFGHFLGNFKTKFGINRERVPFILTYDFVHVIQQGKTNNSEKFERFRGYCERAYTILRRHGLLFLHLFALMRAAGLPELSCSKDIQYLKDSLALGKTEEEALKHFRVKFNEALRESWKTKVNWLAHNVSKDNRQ
Chain of PI3K-δ in RAJI cells (P27986 whole entry partner): as the sequence (P27986 whole entry partner) above

[6] = molecular target: PI3K β (Homo sapiens (Human), UniProt P42338); assay: PI3-Kinase Promega ADP-Glo Max assay; assay type: biochemical
Chain of PI3K β (P42338 whole entry): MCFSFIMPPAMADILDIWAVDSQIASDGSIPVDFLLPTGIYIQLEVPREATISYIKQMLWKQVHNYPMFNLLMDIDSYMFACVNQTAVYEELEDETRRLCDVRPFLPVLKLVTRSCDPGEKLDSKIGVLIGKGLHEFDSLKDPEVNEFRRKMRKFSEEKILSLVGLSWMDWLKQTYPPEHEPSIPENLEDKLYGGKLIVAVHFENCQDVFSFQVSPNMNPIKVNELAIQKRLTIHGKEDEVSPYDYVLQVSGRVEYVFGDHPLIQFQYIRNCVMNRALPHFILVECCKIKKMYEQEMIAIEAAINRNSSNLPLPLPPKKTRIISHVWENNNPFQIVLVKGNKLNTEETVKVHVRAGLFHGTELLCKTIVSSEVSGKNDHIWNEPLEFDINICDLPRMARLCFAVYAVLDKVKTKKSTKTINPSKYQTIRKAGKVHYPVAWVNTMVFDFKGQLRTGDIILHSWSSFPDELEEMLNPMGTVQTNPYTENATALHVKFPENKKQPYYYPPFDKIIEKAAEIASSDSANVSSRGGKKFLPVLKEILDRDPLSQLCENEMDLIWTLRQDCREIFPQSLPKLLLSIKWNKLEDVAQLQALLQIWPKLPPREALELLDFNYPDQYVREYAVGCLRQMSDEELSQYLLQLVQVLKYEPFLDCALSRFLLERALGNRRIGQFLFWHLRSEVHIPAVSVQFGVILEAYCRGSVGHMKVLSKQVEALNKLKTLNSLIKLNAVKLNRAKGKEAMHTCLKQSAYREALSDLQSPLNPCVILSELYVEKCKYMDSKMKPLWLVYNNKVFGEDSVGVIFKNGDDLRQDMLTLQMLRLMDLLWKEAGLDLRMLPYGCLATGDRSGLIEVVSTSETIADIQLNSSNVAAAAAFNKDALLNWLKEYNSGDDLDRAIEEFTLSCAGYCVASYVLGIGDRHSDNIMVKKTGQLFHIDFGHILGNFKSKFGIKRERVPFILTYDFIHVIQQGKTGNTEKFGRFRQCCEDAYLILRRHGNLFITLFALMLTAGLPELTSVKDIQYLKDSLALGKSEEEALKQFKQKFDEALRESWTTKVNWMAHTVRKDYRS
Chain of PI3K β (P27986 whole entry partner): as the sequence (P27986 whole entry partner) above
Protocol: as §1, §2

Chain of PI3K δ (O00329 whole entry): as the sequence (O00329 whole entry) above
Chain of PI3K δ (P27986 whole entry partner): as the sequence (P27986 whole entry partner) above

SMILES	IC50 [1] [µM]	RAJIδ/Raw264.7 γ IC50 (selectivity) [2]	IC50 [2] [µM]	IC50 [3] [µM]	IC50 [4] [µM]	PI3K δ/PI3K γ IC50 (selectivity) [4]	IC50 [5] [µM]	IC50 [6] [µM]
C[C@H](NC(=O)c1nccnc1N)c1cc2cccc(C#Cc3cnn(C)c3)c2c(=O)n1-c1ccccc1 [Compound 29]	1 to 5	W (W = >1 to <10)	0.001 to 0.05	5 to 10	0.1 to 0.5	X (X = 10 to <50)	0.001 to 0.1	1 to 5
Cc1ncccc1C#Cc1cccc2cc([C@H](C)NC(=O)c3c(N)nn4cccnc34)n(-c3ccccc3)c(=O)c12 [Compound 67]	5 to 10	X (X = 10 to <50)	0.1 to 10	5 to 10	1 to 5	W (W = >1 to <10)	1 to 10	5 to 10
C[C@H](NC(=O)c1c(N)nn2cccnc12)c1nc2cccc(C#Cc3cnn(C)c3)c2c(=O)n1C [Compound 55]	5 to 10	X (X = 10 to <50)	0.001 to 0.05	1 to 5	1 to 5	W (W = >1 to <10)	0.5 to 1	1 to 5
C[C@H](NC(=O)c1c(N)nn2cccnc12)c1cc2cccc(C#CC(C)(C)O)c2c(=O)n1-c1ccccc1 [Compound 11]	5 to 10	X (X = 10 to <50)	0.05 to 0.1	5 to 10	0.1 to 0.5	X (X = 10 to <50)	1 to 10	5 to 10
C#Cc1cccc2nc([C@H](C)NC(=O)c3c(N)nn4cccnc34)n(C)c(=O)c12 [Compound 48]	1 to 5	V (V = 0.1 to 1)	0.001 to 0.05	1 to 5	0.5 to 1	W (W = >1 to <10)	0.001 to 0.1	0.5 to 1
Cc1ccc(C#Cc2cccc3cc([C@H](C)NC(=O)c4c(N)nn5cccnc45)n(-c4ccccc4)c(=O)c23)cn1 [Compound 77]	5 to 10	Y (Y = 50 to <850)	0.001 to 0.05	5 to 10	0.001 to 0.1	Y (Y = 50 to <850)	0.5 to 1	5 to 10
C[C@H](NC(=O)c1c(N)nn2cccnc12)c1cc2cccc(C#Cc3ccn(C)n3)c2c(=O)n1-c1ccccc1 [Compound 30]	5 to 10	Y (Y = 50 to <850)	0.001 to 0.05	5 to 10	0.1 to 0.5	Y (Y = 50 to <850)	0.1 to 0.5	5 to 10
C[C@H](NC(=O)c1c(N)nn2cccnc12)c1cc2ccc3ccccc3c2c(=O)n1-c1ccccc1 [Compound 89]	5 to 10	Y (Y = 50 to <850)	0.001 to 0.05	5 to 10	0.5 to 1	X (X = 10 to <50)	1 to 10	5 to 10
C[C@H](NC(=O)c1c(N)nn2cccnc12)c1cc2cccc(C#CC3CCCCC3)c2c(=O)n1-c1ccccc1 [Compound 65]	5 to 10	X (X = 10 to <50)	0.1 to 10	5 to 10	1 to 5	W (W = >1 to <10)	1 to 10	5 to 10
C[C@H](NC(=O)c1c(N)nn2cccnc12)c1cc2cccc(C#Cc3ccccc3)c2c(=O)n1-c1ccccc1 [Compound 5]	0.001 to 0.5	W (W = >1 to <10)	0.001 to 0.05	5 to 10	1 to 5	V (V = 0.1 to 1)	0.001 to 0.1	5 to 10
C[C@H](NC(=O)c1c(N)nn2cccnc12)c1cc2cccc(C#CCN3CCOCC3)c2c(=O)n1-c1ccccc1 [Compound 10]	5 to 10	X (X = 10 to <50)	0.001 to 0.05	5 to 10	0.1 to 0.5	X (X = 10 to <50)	1 to 10	5 to 10
C[C@H](NC(=O)c1c(N)nn2cccnc12)c1cc2cccc(C#Cc3ccncc3)c2c(=O)n1-c1ccccc1 [Compound 26]	5 to 10	Y (Y = 50 to <850)	0.001 to 0.05	5 to 10	0.1 to 0.5	X (X = 10 to <50)	0.1 to 0.5	5 to 10
C#Cc1cccc2nc([C@H](C)NC(=O)c3c(N)nn4cccnc34)n(-c3ccc(F)c(F)c3)c(=O)c12 [Compound 45]	5 to 10	W (W = >1 to <10)	0.001 to 0.05	5 to 10	0.1 to 0.5	Y (Y = 50 to <850)	0.1 to 0.5	5 to 10
C[C@H](NC(=O)c1c(N)nn2cccnc12)c1cc2cccc(C#CC3CCN(S(C)(=O)=O)CC3)c2c(=O)n1-c1ccccc1 [Compound 83]	5 to 10	X (key: V = 0.1 to 1; W = >1 to <10; X = 10 to <50; Y = 50 to <850)	0.001 to 0.05	5 to 10	0.5 to 1	X (key: V = 0.1 to 1; W = >1 to <10; X = 10 to <50; Y = 50 to <850)	0.5 to 1	5 to 10
C[C@H](NC(=O)c1cnn2cccnc12)c1cc2cccc(C#Cc3cnn(C)c3)c2c(=O)n1-c1ccccc1 [Compound 39]	5 to 10	X (X = 10 to <50)	0.05 to 0.1	5 to 10	0.1 to 0.5	X (X = 10 to <50)	1 to 10	5 to 10
C[C@H](NC(=O)c1c(N)nn2cccnc12)c1cc2cccc(C#Cc3nccs3)c2c(=O)n1-c1ccccc1 [Compound 59]	5 to 10	X (X = 10 to <50)	0.001 to 0.05	5 to 10	0.1 to 0.5	X (X = 10 to <50)	0.1 to 0.5	5 to 10
C[C@H](NC(=O)c1c(N)nn2cccnc12)c1cc2cccc(C#CC3CCOC3)c2c(=O)n1-c1ccccc1 (some centres unmarked) [Compound 84]	5 to 10	X (X = 10 to <50)	0.001 to 0.05	5 to 10	0.001 to 0.1	Y (Y = 50 to <850)	0.1 to 0.5	5 to 10
C[C@H](NC(=O)c1c(N)nn2cccnc12)c1cc2cccc(C#Cc3cscn3)c2c(=O)n1-c1ccccc1 [Compound 54]	1 to 5	W (W = >1 to <10)	0.001 to 0.05	1 to 5	0.001 to 0.1	Y (Y = 50 to <850)	0.1 to 0.5	1 to 5
C[C@H](NC(=O)c1c(N)nn2cccnc12)c1cc2cccc(C#Cc3cn[nH]c3)c2c(=O)n1-c1ccccc1 [Compound 80]	5 to 10	Y (key: V = 0.1 to 1; W = >1 to <10; X = 10 to <50; Y = 50 to <850)	0.001 to 0.05	1 to 5	0.001 to 0.1	Y (key: V = 0.1 to 1; W = >1 to <10; X = 10 to <50; Y = 50 to <850)	0.1 to 0.5	1 to 5
Cc1cnc(C(=O)N[C@@H](C)c2cc3cccc(C#Cc4cnn(C)c4)c3c(=O)n2-c2ccccc2)c(N)n1 [Compound 68]	5 to 10	W (W = >1 to <10)	0.1 to 10	5 to 10	1 to 5	W (W = >1 to <10)	1 to 10	5 to 10
C[C@H](O)C#Cc1cccc2cc([C@H](C)NC(=O)c3c(N)nn4cccnc34)n(-c3ccccc3)c(=O)c12 [Compound 16]	1 to 5	X (X = 10 to <50)	0.001 to 0.05	5 to 10	0.001 to 0.1	Y (Y = 50 to <850)	0.1 to 0.5	1 to 5
C[C@H](NC(=O)c1c(N)nn2cccnc12)c1cc2cccc(C#CC3CNC3)c2c(=O)n1-c1ccccc1 [Compound 74]	1 to 5	W (key: V = 0.1 to 1; W = >1 to <10; X = 10 to <50; Y = 50 to <850)	0.1 to 10	5 to 10	0.5 to 1	W (key: V = 0.1 to 1; W = >1 to <10; X = 10 to <50; Y = 50 to <850)	1 to 10	5 to 10
C[C@H](NC(=O)c1c(N)nn2cccnc12)c1cc2cccc(C#CCO)c2c(=O)n1-c1ccccc1 [Compound 13]	0.5 to 1	W (W = >1 to <10)	0.001 to 0.05	5 to 10	0.001 to 0.1	X (X = 10 to <50)	0.001 to 0.1	1 to 5
C[C@H](NC(=O)c1c(N)nn2cccnc12)c1cc2cccc(C#CC3CCOCC3)c2c(=O)n1-c1ccccc1 [Compound 27]	5 to 10	Y (Y = 50 to <850)	0.001 to 0.05	5 to 10	0.1 to 0.5	X (X = 10 to <50)	0.001 to 0.1	5 to 10
COc1ncc(C#Cc2cccc3cc([C@H](C)NC(=O)c4c(N)nn5cccnc45)n(-c4ccccc4)c(=O)c23)cn1 [Compound 18]	5 to 10	X (X = 10 to <50)	0.001 to 0.05	5 to 10	0.1 to 0.5	Y (Y = 50 to <850)	0.1 to 0.5	5 to 10
